# Results reported in article PMC12518639, “Apomorphine is a novel necroptosis inhibitor targeting mixed lineage kinase domain-like protein oligomerization” (Cell Death Discovery, 2025).
# How the values were obtained:
# [1] = test system: p-MLKL and p-RIP1; test: Western blot of cytosol and membrane fractions; format: cell-based, human; conditions: THP-1, TBZ, 20 μM
# Method: The cells were harvested and lysed in 1× RIPA buffer (R4100-010, GenDEPOT, Katy, TX, USA) containing protease (P3100-001, GenDEPOT) and phosphatase (1862495, Thermo Fisher Scientific) inhibitors. WCLs were then centrifuged at 20,000×g for 30 min at 4 °C and subjected to non-reducing or reducing 8–12% SDS-PAGE gel electrophoresis. The membrane was blocked with 5% non-fat milk in TBS and probed with antibodies. Antibodies to hMLKL (14993S), mMLKL (97705S), phospho-hMLKL (Ser358) (91689S), phospho-mMLKL (Ser345) (37333S), phospho-hRIP1 (Ser166) (65746S), mRIP1 (3493S), phospho-mRIP1 (Ser321) (38662S), phospho-hRIP3 (Ser227) (93654), mRIP3 (95702S), p-mRIP3 (Thr231/Ser232) (91702S), and LDH (2012S) (Cell Signaling Technology, Danvers, MA, USA), and GAPDH (LF-PA0018, Abfrontier, S. Korea), hRIP1 (ab72139, Abcam, Cambridge, UK), hRIP3 (sc-135170, Santa Cruz Biotechnology, Dallas, TX, USA), HMGB1 (ab78923, Abcam), and LAMP1 (ab24170, Abcam) antibodies were used.
# Cell membrane fractionation was performed to determine whether MLKL oligomers were retained in the cell membrane fraction. Briefly, THP-1 cells were harvested and resuspended in 20 mM TBS (pH 7.4) containing 10 mM KCl, 1 mM MgCl2, protease inhibitor (P3100-001, GenDEPOT), and phosphatase inhibitor (1862495, Thermo Fisher Scientific). The cell suspension was passed through a 22-gauge needle and centrifuged at 20,000×g for 15 min and stored as the cytoplasmic fraction. The pellet was resuspended in lysis buffer and stored as the crude membrane fraction.
# Fig. S1 Assessment of p-MLKL inhibition to identify MLKL-targeting molecules. (A) Quantification graph corresponding to Fig. 1C. THP-1 cells were treated with TBZ in the presence of secondarily selected compounds (S1–S72, 20 μM). Whole-cell lysates (WCLs) were collected and subjected to Western blot analysis under reducing conditions using antibodies against p-MLKL, MLKL, and GAPDH. The p-MLKL/MLKL ratio was quantified and compared to that of TBZ-treated cells. Data represent the mean of three independent experiments. (B) Quantification graph corresponding to Fig. 1D. THP-1 cells were treated with TBZ in the presence of third-round selected compounds (S1–S62, 20 μM). Cytosolic and membrane fractions were collected and analyzed by Western blot under reducing conditions. The levels of p-MLKL and p-RIP1 were normalized to LDH (cytosolic marker) and LAMP1 (membrane marker), respectively. Quantified ratios were compared to those of TBZ-treated cells (n = 3 independent experiments).
# [2] = molecular target: T1, Nt-hMLKL^C86A/L89A/D94A (Homo sapiens, UniProt Q8NB16, C86A/D94A/L89A); test: SPR binding to Nt-hMLKL triple mutant; conditions: CM5 chip
# T1 construct: an N-terminal domain (Nt-hMLKL, amino acids 2–154, MW: 23 kDa) involved in oligomerization; His (N); made in house; host or cells: E. coli BL21
# T1 sequence (Q8NB16 2-154 C86A/L89A/D94A): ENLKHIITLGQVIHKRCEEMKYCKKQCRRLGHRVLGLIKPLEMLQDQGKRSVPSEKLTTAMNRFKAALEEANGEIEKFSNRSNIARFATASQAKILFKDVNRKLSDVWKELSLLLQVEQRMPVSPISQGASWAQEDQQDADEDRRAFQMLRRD
# Excerpt: The hMLKL plasmid (RC213152, OriGene, Rockville, MD, USA), and recombinant Wt-hMLKL (ab241453, Abcam) and Wt-mMLKL (MBS1379843, MyBioSource, San Diego, CA, USA) proteins were purchased. Nt-hMLKL (2–154), Nt-mMLKL (1–180), and Ct-hMLKL (183–471) were generated using the pBT7-N-His vector. Nt-hMLKL^C86A, Nt-hMLKL^F148A, -hMLKL^C86A/L89A/D94A, and Nt-hMLKL^R145A/R146A/F148A/M150A were generated using the Site-directed Mutagenesis Kit (EZ004S, Enzynomics, S. Korea). These constructs were subcloned into pBT7-N-His and pET-15b plasmid vectors. E. coli BL21 cells transformed with the cloned expression vectors were cultured in LB medium and supplemented with 100 μg/mL ampicillin until an OD at 600 nm of 0.5–0.6 was reached. The cultures were induced by 1 mM IPTG (367-93-1, Sigma-Aldrich). The cells were lysed and centrifuged. The clear supernatants were subjected to Ni-NTA affinity chromatography (175018169, QIAGEN, Hilden, Germany). Plasmids encoding mMLKL (1–464)–gyrase fusion constructs were kindly provided by Prof. […]
# The interactions of Wt-hMLKL, Wt-mMLKL, Nt-mMLKL, Nt, and Ct-hMLKL proteins with Re-APO or Ox-APO were detected through SPR analysis using Biacore™ T200 (Cytiva, Marlborough, MA, USA). […] Sensorgrams were recorded and analyzed in real-time using the control software in the BIAcore T200 system. All data were analyzed using the BIA evaluation software (Cytiva).
SMILES,p-MLKL levels in the cytosolic fraction [1],p-MLKL levels in the membrane fraction [1],binding in SPR [2]
"CN1CCc2cccc3c2[C@@H]1Cc1ccc(O)c(O)c1-3 [S62, (6aS)-6-methyl-5,6,6a,7-tetrahydro-4H-dibenzo[de,g]quinoline-10,11-diol]",little or moderate inhibition,significantly inhibited,–
CN1CCc2cccc3c4c(cc1c23)C=CC(=O)C4=O [Ox-APO],–,–,no binding
